Five compounds from ChEMBL document CHEMBL1155489, “Novel 3-O-pegylated carboxylate and 3-O-pegylated carbamate prodrugs of naltrexone for microneedle-enhanced transdermal delivery” (Bioorg Med Chem Lett, 2010) can be followed below.

The term thermodynamic solubility denotes the concentration in solution at equilibrium with solid.

Converted amounts (≈) assume the structure as drawn.

The nature of data set [1]: Solubility in 0.3 M acetate buffer at pH 5. In kind it is physicochemical.
Data set [2] is described as follows: Solubility in 0.3 M acetate buffer at pH 5 relative to naltrexone. The class given is physicochemical.

Consider `COCCOCCOCCC(=O)Oc1ccc2c3c1O[C@H]1C(=O)CC[C@@]4(O)[C@@H](C2)N(CC2CC2)CC[C@]314`, for which, in data set [1], the thermodynamic solubility stood at 952 mM (≈ 491 mg/mL). Also, the Ratio in data set [2] came out at 2.81.

Regarding `O=C1CC[C@@]2(O)[C@H]3Cc4ccc(O)c5c4[C@@]2(CCN3CC2CC2)[C@H]1O5` [NALTREXONE], in data set [1], the solubility (thermodynamic) came out at 338 mM (≈ 115 mg/mL).

Turning to `COCCOCCOCCNC(=O)Oc1ccc2c3c1O[C@H]1C(=O)CC[C@@]4(O)[C@@H](C2)N(CC2CC2)CC[C@]314`, the thermodynamic solubility in data set [1] amounted to 796 mM (≈ 422 mg/mL). The Ratio in data set [2] was 2.35.

In data set [1], `O=C(CCOCCOCCO)Oc1ccc2c3c1O[C@H]1C(=O)CC[C@@]4(O)[C@@H](C2)N(CC2CC2)CC[C@]314` had a thermodynamic solubility of 629 mM (≈ 315 mg/mL). In data set [2], the Ratio turned out to be 1.86.

Consider `O=C(NCCOCCOCCO)Oc1ccc2c3c1O[C@H]1C(=O)CC[C@@]4(O)[C@@H](C2)N(CC2CC2)CC[C@]314`, for which, in data set [1], the solubility (thermodynamic) worked out at 1040 mM (≈ 535 mg/mL). Further, in data set [2], the Ratio came to 3.06.
